This passage reports 2-AG accumulation, % of vehicle control, Kd and IC50 results from patent US8362000B2, “Azetidinyl diamides as monoacylglycerol lipase inhibitors” (Janssen Pharmaceutica NV, priority 2009, dated 2013).

The target of one assay is T1, MGL (Rattus norvegicus, UniProt Q8R431).
T1 construct: one g rat brain was homogenized using a Polytron homogenizer; from tissue; host or cells: rat brain homogenate
T1 sequence (Q8R431 1-303): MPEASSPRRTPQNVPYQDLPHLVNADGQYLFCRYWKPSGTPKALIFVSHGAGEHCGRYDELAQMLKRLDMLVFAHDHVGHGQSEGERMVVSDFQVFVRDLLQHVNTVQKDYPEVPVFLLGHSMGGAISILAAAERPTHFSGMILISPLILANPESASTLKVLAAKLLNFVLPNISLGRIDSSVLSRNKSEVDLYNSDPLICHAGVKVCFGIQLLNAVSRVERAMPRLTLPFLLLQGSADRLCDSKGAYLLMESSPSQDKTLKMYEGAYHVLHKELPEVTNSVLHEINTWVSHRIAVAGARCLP
Put plainly: 2-AG accumulation assay in rat brain homogenate. The class given is biochemical. To be noted: rat brain homogenate, 2-AG accumulation as percent of vehicle; for 2-AG accumulation, % of vehicle control at 1 µM: compound 1 μM, read-out: Rat Brain 2AG % VehCntrl (%) @ 1 μM.

Another assay deals with T2, mutant MGL (Homo sapiens, UniProt Q99685, L169S/L176S).
T2 sequence (Q99685 1-303 L169S/L176S): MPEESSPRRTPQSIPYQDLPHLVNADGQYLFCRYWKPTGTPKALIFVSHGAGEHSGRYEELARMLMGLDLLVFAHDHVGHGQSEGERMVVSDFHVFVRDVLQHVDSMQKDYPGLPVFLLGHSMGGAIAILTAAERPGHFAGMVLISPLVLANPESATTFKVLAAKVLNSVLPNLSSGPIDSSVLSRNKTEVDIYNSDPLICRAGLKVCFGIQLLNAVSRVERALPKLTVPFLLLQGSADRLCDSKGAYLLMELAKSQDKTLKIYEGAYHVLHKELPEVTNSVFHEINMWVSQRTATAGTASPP
Description: MGL ThermoFluor assay - mutant. The class given is binding. The following applies: for Kd: read-out: MGL mutant ThermoFluor qKd (μM) (using qNMR conc.).

Assay [1] deals with T3, purified wild type MGL (wt-MGLL 6H-11-313) (Homo sapiens, UniProt Q99685).
T3 sequence (Q99685 1-303): T2 sequence (Q99685 1-303 L169S/L176S) with S169L, S176L

[2] abbreviates: compound concentration measured by qNMR, read-out: MGL mutant ThermoFluor qKd (using qNMR conc.).
Setting [3] is: ThermoFluor concentration-response, read-out: MGL mutant ThermoFluor Kd.
Setting [4] is: ThermoFluor, compound concentration measured by qNMR, read-out: MGL mutant ThermoFluor qKd (using qNMR conc.).
Setting [5] is: ThermoFluor thermal stability binding assay, read-out: MGL mutant ThermoFluor Kd.
Where [6] appears, read: ThermoFluor, compound concentration measured by qNMR.

Numbering of substitutions follows the chain as printed. pIC50, pKd: −log10 of the molar value. Like-named read-outs stand apart in the source and are kept apart here.

Usually pIC50 stands for the IC50 on a negative log10 scale, so that one unit is a factor of ten. Read a high pIC50 as a small IC50. `Cn1cc(Cc2ccc(F)cc2)c2ccc(C(=O)N3CC(N4CCN(C(=O)c5cscn5)CC4)C3)cc21` [Cpd 1027]: on MGL, the 2-AG accumulation, % of vehicle control at 1 µM came to 785%. For the same compound, the pKd on mutant MGL (setting [2]) was 7.92. The pIC50 in assay [1] was 7.85.
For the compound `O=C(c1ccccc1)N1CCN(C2CN(C(=O)c3ccc(Sc4cccc(C(F)(F)F)c4)cc3)C2)CC1` [Cpd 430], the 2-AG accumulation, % of vehicle control at 1 µM on MGL is 114%. In addition, at mutant MGL (setting [3]), the pKd was 7.18. The same compound gave a negative logarithm of the IC50 (pIC50) in assay [1] of 7.63.
In the case of `O=C(c1ccc(-n2nc3c(c2-c2cccc(C(F)(F)F)c2)CCC3)cc1)N1CC(N2CCN(C(=O)c3nccs3)CC2)C1` [Cpd 1330], the 2-AG accumulation, % of vehicle control at 1 µM at MGL was 589%. Further, the pKd at mutant MGL (setting [3]) was 8.70; at mutant MGL (setting [4]) it was 8.30. This compound had a pIC50 in assay [1] greater than 8.30.
Take `O=C(c1cc(F)c2c(ccn2-c2ccc(F)cc2)c1)N1CC(N2CCN(C(=O)c3nccs3)CC2)C1` [Cpd 1350, 7-Fluoro-1-(4-fluorophenyl)-5-({3-[4-(1,3-thiazol-2-ylcarbonyl)piperazin-1-yl]azetidin-1-yl}carbonyl)-1H-indole]: the 2-AG accumulation, % of vehicle control at 1 µM at MGL was 873%. Moreover, the pKd on mutant MGL (setting [2]) was 9.00. For the same compound, in assay [1], the negative logarithm of the IC50 (pIC50) was greater than 8.30.
With `O=C(c1ccccc1)N1CCN(C2CN(C(=O)c3ccc(Cc4cccc(C(F)(F)F)c4)cc3)C2)CC1` [Cpd 547], the 2-AG accumulation, % of vehicle control at 1 µM at MGL amounted to 652%. Besides, the pKd at mutant MGL (setting [3]) is 7.14. The compound also had a pIC50 in assay [1] greater than 8.30.
Regarding `O=C(c1ccc(F)cc1)c1c[nH]c2cc(C(=O)N3CC(N4CCN(C(=O)c5nccs5)CC4)C3)ccc12` [Cpd 1025], the 2-AG accumulation, % of vehicle control at 1 µM on MGL turned out to be 851%. In addition, the pKd on mutant MGL (setting [2]) was 7.18. This compound also had a pIC50 in assay [1] of 7.72.
Taken in the same sequence, the figures for `O=C(c1ccc(Sc2cccc(Cl)c2)cc1)N1CC(N2CCN(C(=O)C(F)(F)F)CC2)C1` [Cpd 677] were 141%, 6.36 and 7.68.
Regarding `COc1cc(C(=O)N2CC(N3CCN(C(=O)c4cscn4)CC3)C2)ccc1-c1cccc(C(F)(F)F)c1` [Cpd 248, 1-(1-{[2-Methoxy-3′-(trifluoromethyl)biphenyl-4-yl]carbonyl}azetidin-3-yl)-4-(1,3-thiazol-4-ylcarbonyl)piperazine], the 2-AG accumulation, % of vehicle control at 1 µM on MGL came to 312%. The pKd at mutant MGL (setting [5]) was 8.17. Moreover, the negative-log IC50 (pIC50) in assay [1] is 8.15.
As for `Cc1ccc2sc(C(=O)N3CC(N4CCN(C(=O)c5nccs5)CC4)C3)c(C(F)(F)F)c2c1` [Cpd 691, 1-(1-{[5-Methyl-3-(trifluoromethyl)-1-benzothiophen-2-yl]carbonyl}azetidin-3-yl)-4-(1,3-thiazol-2-ylcarbonyl)piperazine], at MGL, the 2-AG accumulation, % of vehicle control at 1 µM was 840%. The pKd at mutant MGL (setting [3]) is 8.40. Besides, the pIC50 in assay [1] is 7.34.
In the same order, the values of `O=C(c1ccc2c(-c3cccc(C(F)(F)F)c3)c[nH]c2c1)N1CC(N2CCN(C(=O)c3cscn3)CC2)C1` [Cpd 1345] are 459%, 8.22 and greater than 8.30.
In the same order, the values of `O=C(c1cc(F)cc(-c2ccccc2)c1)N1CC(N2CCN(C(=O)c3nccs3)CC2)C1` [Cpd 1104, 1-{1-[(5-Fluorobiphenyl-3-yl)carbonyl]azetidin-3-yl}-4-(1,3-thiazol-2-ylcarbonyl)piperazine] are 334%, 6.70 and 7.89.
In the case of `O=C(c1csnn1)N1CC(N2CCN(C(=O)c3cc4cc(C(F)(F)F)ccc4s3)CC2)C1` [Cpd 753], at MGL, the 2-AG accumulation, % of vehicle control at 1 µM turned out to be 173%. Further, the pKd at mutant MGL (setting [3]) was 6.29. For the same compound, the pIC50 in assay [1] was 6.36.
In the case of `O=C(c1ccc2c(c1)CCN(C(=O)C1CCC(C(F)(F)F)CC1)C2)N1CC(N2CCN(C(=O)c3nccs3)CC2)C1` (stereo not shown) [Cpd 685], the 2-AG accumulation, % of vehicle control at 1 µM at MGL was 756%. Also, the pKd at mutant MGL (setting [5]) was 7.17. The negative logarithm of the IC50 (pIC50) in assay [1] is 7.48.
`O=C(c1ccc(-c2nc(-c3ccc(F)cc3)cs2)cc1)N1CC(N2CCN(C(=O)c3nccs3)CC2)C1` [Cpd 1082]: on MGL, the 2-AG accumulation, % of vehicle control at 1 µM was found to be 742%. Further, the pKd at mutant MGL (setting [3]) is 8.52. Further, the pIC50 in assay [1] was 8.05.
Regarding `Cc1sc(C(=O)N2CC(N3CCN(C(=O)c4nccs4)CC3)C2)cc1-c1cccc(F)c1` [Cpd 1059], on MGL, the 2-AG accumulation, % of vehicle control at 1 µM worked out at 507%. On mutant MGL (setting [6]), the Kd stood at 0.066 µM. The compound further gave a negative-log IC50 (pIC50) in assay [1] of 8.22.
As for `Cc1cc(C(=O)N2CC(N3CCN(C(=O)c4nccs4)CC3)C2)sc1-c1cccc(C(F)(F)F)c1` [Cpd 1354], the 2-AG accumulation, % of vehicle control at 1 µM at MGL was 750%. Moreover, the Kd on mutant MGL (setting [6]) stood at 0.009 µM. In assay [1], this compound showed a pIC50 greater than 8.30.
With `Cn1ccc2cc(C(=O)N3CC(N4CCN(C(=O)c5nccs5)CC4)C3)cc(-c3ccc(F)cc3)c21` [Cpd 1101], the 2-AG accumulation, % of vehicle control at 1 µM on MGL came out at 501%. For the same compound, at mutant MGL (setting [6]), the Kd worked out at 0.044 µM. Further, the pIC50 in assay [1] is 7.92.
Turning to `O=C(c1cc(-c2ccc(Cl)cc2)n(-c2ccc(Cl)c(Cl)c2)n1)N1CC(N2CCN(C(=O)c3nccs3)CC2)C1` [Cpd 1083], on MGL, the 2-AG accumulation, % of vehicle control at 1 µM came to 299%. Besides, the pKd on mutant MGL (setting [4]) was 7.19. The pIC50 in assay [1] was 8.05.
Take `O=C(c1ccc2c(ccn2-c2cc(F)c(F)c(F)c2)c1)N1CC(N2CCN(C(=O)c3nccs3)CC2)C1` [Cpd 1367]: the 2-AG accumulation, % of vehicle control at 1 µM at MGL came to 798%. The pKd on mutant MGL (setting [5]) was 8.70. The compound further had a pIC50 in assay [1] greater than 8.30.
With `O=C(c1ccc(OCc2cncc(Cl)c2)cc1)N1CC(N2CCN(C(=O)c3nccs3)CC2)C1` [Cpd 978], the 2-AG accumulation, % of vehicle control at 1 µM on MGL was found to be 570%. Also, on mutant MGL (setting [5]), the pKd was 7.18. The negative-log IC50 (pIC50) in assay [1] is 8.15.
For `O=C(c1ccc2c(ccn2-c2ccc(F)cc2)n1)N1CC(N2CCN(C(=O)c3nccs3)CC2)C1` [Cpd 1153], the 2-AG accumulation, % of vehicle control at 1 µM on MGL was determined as 404%. Besides, the Kd at mutant MGL (setting [6]) turned out to be 0.004 µM. In assay [1], this compound gave a pIC50 of 7.41.
With `O=C(c1ccc(-c2ccc(F)cc2)cc1)N1CC(N2CCN(C(=O)c3cscn3)CC2)C1` [Cpd 225, 1-{1-[(4′-Fluorobiphenyl-4-yl)carbonyl]azetidin-3-yl}-4-(1,3-thiazol-4-ylcarbonyl)piperazine], at MGL (compound 10 μM, read-out: Rat Brain 2AG % VehCntrl (%) @ 10 μM), the 2-AG accumulation, % of vehicle control at 10 µM worked out at 656%. Further, the pKd on mutant MGL (setting [5]) was 7.70. The compound also had a negative-log IC50 (pIC50) in assay [1] of 7.26.
With `O=C(c1ccccc1)N1CCN(C2CN(C(=O)c3ccc4c(-c5ccc(C(F)(F)F)cc5)c[nH]c4c3)C2)CC1` [Cpd 634], the 2-AG accumulation, % of vehicle control at 1 µM on MGL is 301%. Besides, the pKd at mutant MGL (setting [3]) is 7.27. This compound also had a pIC50 in assay [1] of 7.24.
`COc1ccc(-n2ccc3cc(C(=O)N4CC(N5CCN(C(=O)c6nccs6)CC5)C4)ccc32)cn1` [Cpd 1072, 1-(6-Methoxypyridin-3-yl)-5-({3-[4-(1,3-thiazol-2-ylcarbonyl)piperazin-1-yl]azetidin-1-yl}carbonyl)-1H-indole]: on MGL, the 2-AG accumulation, % of vehicle control at 1 µM was 839%. In addition, the pKd on mutant MGL (setting [4]) was 8.15. Also, the negative-log IC50 (pIC50) in assay [1] was 8.10.
Consider `N#Cc1cccc(-c2ccc(C(=O)N3CC(N4CCN(C(=O)c5nccs5)CC4)C3)cc2)c1` [Cpd 161, 4′-({3-[4-(1,3-Thiazol-2-ylcarbonyl)piperazin-1-yl]azetidin-1-yl}carbonyl)biphenyl-3-carbonitrile], for which the 2-AG accumulation, % of vehicle control at 1 µM at MGL is 335%. Also, the pKd at mutant MGL (setting [3]) was 7.95. The same compound had a pIC50 in assay [1] of 7.93.
Take `O=C(c1ccc(-c2ccc(C(F)(F)F)s2)cc1)N1CC(N2CCN(C(=O)c3nccs3)CC2)C1` [Cpd 1361, 1-(1,3-Thiazol-2-ylcarbonyl)-4-[1-({4-[5-(trifluoromethyl)thiophen-2-yl]phenyl}carbonyl)azetidin-3-yl]piperazine]: the 2-AG accumulation, % of vehicle control at 1 µM at MGL is 994%. In addition, the pKd at mutant MGL (setting [3]) is 8.52. The pIC50 in assay [1] was greater than 8.30.
`Cc1cc(C(=O)N2CC(N3CCN(C(=O)c4nccs4)CC3)C2)sc1-c1ccc(F)cc1` [Cpd 1353]: at MGL, the 2-AG accumulation, % of vehicle control at 1 µM stood at 545%. On mutant MGL (setting [6]), the Kd was determined as 0.018 µM. The compound also had a pIC50 in assay [1] greater than 8.30.
